Results taken from US10561638B2, “Methods for treating dependence” (Biotie Therapies, Inc., priority 2007, dated 2020).

What was measured:
[1] = target: Ca2+/calmodulin protein kinase II; assay: Enzyme selectivity assay; type: biochemical
Experimental: (§1) The activity of nepicastat at twelve selected enzymes and receptors was determined using established assays. Binding data were analyzed by iterative curve-fitting to a four parameter logistic equation. Ki values were calculated from IC50 values using the Cheng-Prusoff equation. Enzyme inhibitory activity was expressed as IC50 (concentration required to produce 50% inhibition of enzyme activity).
(§2) The activity of nepicastat at eleven different enzymes was determined using established assays. The affinity of nepicastat for thirteen selected receptors was determined by radioligand binding assays using standard filtration techniques and membrane preparations. Binding data were analyzed by iterative curve fitting to a four parameter logistic equation. Ki values were calculated using the Cheng-Prusoff equation.

HMG-CoA reductase = HMG-CoA reductase (Homo sapiens, UniProt P04035); assay: Enzyme selectivity assay; type: biochemical
Experimental: as §1, §2

acetyl CoA synthetase = assay: Enzyme selectivity assay; type: biochemical
Experimental: as §1, §2

[2] = target: acyl CoA-cholesterol acyl transferase; assay: Enzyme selectivity assay; type: biochemical
Experimental: as §1, §2

cyclooxygenase-I = cyclooxygenase-I (Homo sapiens, UniProt P23219); assay: Enzyme selectivity assay; type: biochemical
Experimental: as §1, §2

neutral endopeptidase = neutral endopeptidase (Homo sapiens, UniProt P08473); assay: Enzyme selectivity assay; type: biochemical
Experimental: as §1, §2

nitric oxide synthase = assay: Enzyme selectivity assay; type: biochemical
Experimental: as §1, §2

phosphodiesterase III = assay: Enzyme selectivity assay; type: biochemical
Experimental: as §1, §2

phospholipase A2 = assay: Enzyme selectivity assay; type: biochemical
Experimental: as §1, §2

protein kinase C = assay: Enzyme selectivity assay; type: biochemical
Experimental: as §1, §2

tyrosine hydroxylase = tyrosine hydroxylase (Homo sapiens, UniProt P07101); assay: Enzyme selectivity assay; type: biochemical
Experimental: as §1, §2

pithed SHRs = assay: Pressor response to pre-ganglionic nerve stimulation in pithed SHRs; type: in vivo, spontaneously hypertensive rats
Experimental: The in vivo hemodynamic activity of nepicastat was further assessed in conscious, restrained SHRs, a model having high sympathetic drive to cardiovascular tissues. Hemodynamic study in SHRs. Male SHRs (15-16 week old) were used in the study. The animals were lightly anesthetized with ether and the left femoral artery and vein were catheterized for measurement of blood pressure and drug administration, respectively. The animals were placed in restrainers and allowed to recover for 30-40 min. After obtaining baseline measurements, the animals were treated, orally, with either vehicle or the appropriate dose of nepicastat and hemodynamic parameters were continuously recorded for 4 h. The animals were then anesthetized with pentobarbital, placed on a heating pad (37° C.) and ventilated with a Harvard rodent ventilator. After administration of atropine (1 mg/kg, iv) and tubocurarine (1 mg/kg, iv), the animals were pithed through the orbit of the eye with a stainless steel rod. The […] rod was stimulated electrically with 1 ms pulses of 80V at different frequencies (0.15, 0.45, 1.5, 5, 15 Hz) to obtain frequency-pressor response curves. […] The response was slow in onset, reaching its plateau in 3-4 h. […] Following this study, the rats were pithed and the effects of nepicastat on the pressor response to pre-ganglionic nerve stimulation (PNS) of the spinal cord were evaluated 5 h after dosing.

SHRs = assay: 21 day daily treatment of SHRs, tail cuff and direct blood pressure; type: in vivo, spontaneously hypertensive rats
[3] = test system: norepinephrine and dopamine levels; assay: Cortex and mesenteric artery catecholamines in SHRs after 7 and 25 days; type: in vivo, spontaneous hypertensive rats
Experimental: Nepicastat at 1 and 10 mg/kg was prepared in terms of the free base. The weighings were dissolved in vehicle (dH2O) to yield oral doses that could be administered in a volume of 10.0 ml/kg.
Male spontaneous hypertensive rats (SHRs), 16-17 weeks old at the onset of the study, were used. Animals were allowed food and water ad libitum. Animals were randomly assigned to one of the following treatment groups: oral administration of nepicastat at 10 mg/kg, 1 mg/kg, or a vehicle group of deionized water at 10 ml/kg. Rats were dosed orally once a day for 7 or 25 days with vehicle, 1 mg/kg or 10 mg/kg nepicastat (n=8) except for day 25, where n=9. On day 7, four hours after compound administration, animals were anesthetized with halothane, decapitated and the cortex and mesenteric artery were harvested, weighed, and analyzed from 24 rats (n=8/treatment group). The remaining […] continued receiving oral administration with one of the three treatments for the following 18 days. At 4 hours after the last treatment the mesenteric artery and cortex from this group were harvested, weighed, and analyzed for catecholamine levels.
Statistically, the three treatments were compared at each time period (7 or 25 days) using a non-parametric one-way analysis of variance (ANOVA). Pairwise comparisons of each treatment with control were performed using Fisher's LSD strategy on the means, adjusted for differences in sample size, to control the experiment-wise error rate. Each variable was analyzed separately. For FIGS. 6-11, *, p<0.05 and **, P<0.01.

[4] = cerebral cortex, 7 days, 10 mg/kg
[5] = mesenteric artery, 7 and 25 days, 10 mg/kg

Sequence of HMG-CoA reductase (P04035 whole entry, species assumed): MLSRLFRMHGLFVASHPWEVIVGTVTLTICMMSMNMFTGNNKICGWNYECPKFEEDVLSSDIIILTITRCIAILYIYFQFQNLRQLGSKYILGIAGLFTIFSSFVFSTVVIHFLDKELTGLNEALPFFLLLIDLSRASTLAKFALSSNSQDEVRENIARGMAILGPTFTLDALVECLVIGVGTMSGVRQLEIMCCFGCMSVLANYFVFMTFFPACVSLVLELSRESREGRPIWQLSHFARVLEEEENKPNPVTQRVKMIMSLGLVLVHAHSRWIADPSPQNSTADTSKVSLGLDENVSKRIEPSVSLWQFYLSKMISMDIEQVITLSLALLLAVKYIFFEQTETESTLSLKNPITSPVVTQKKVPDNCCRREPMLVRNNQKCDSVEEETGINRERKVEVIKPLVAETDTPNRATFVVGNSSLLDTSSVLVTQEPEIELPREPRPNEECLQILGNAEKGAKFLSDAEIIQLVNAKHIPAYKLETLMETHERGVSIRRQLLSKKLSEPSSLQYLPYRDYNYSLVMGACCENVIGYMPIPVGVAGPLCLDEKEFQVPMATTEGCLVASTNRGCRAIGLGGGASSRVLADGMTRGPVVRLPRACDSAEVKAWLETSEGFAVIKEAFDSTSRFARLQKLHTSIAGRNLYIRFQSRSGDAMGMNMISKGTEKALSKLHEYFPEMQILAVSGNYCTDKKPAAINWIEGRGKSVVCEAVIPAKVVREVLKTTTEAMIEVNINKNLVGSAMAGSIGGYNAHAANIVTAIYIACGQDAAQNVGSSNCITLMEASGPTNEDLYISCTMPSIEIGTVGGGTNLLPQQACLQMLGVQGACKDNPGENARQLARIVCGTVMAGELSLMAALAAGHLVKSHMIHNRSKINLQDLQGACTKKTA
Sequence of cyclooxygenase-I (P23219 24-599): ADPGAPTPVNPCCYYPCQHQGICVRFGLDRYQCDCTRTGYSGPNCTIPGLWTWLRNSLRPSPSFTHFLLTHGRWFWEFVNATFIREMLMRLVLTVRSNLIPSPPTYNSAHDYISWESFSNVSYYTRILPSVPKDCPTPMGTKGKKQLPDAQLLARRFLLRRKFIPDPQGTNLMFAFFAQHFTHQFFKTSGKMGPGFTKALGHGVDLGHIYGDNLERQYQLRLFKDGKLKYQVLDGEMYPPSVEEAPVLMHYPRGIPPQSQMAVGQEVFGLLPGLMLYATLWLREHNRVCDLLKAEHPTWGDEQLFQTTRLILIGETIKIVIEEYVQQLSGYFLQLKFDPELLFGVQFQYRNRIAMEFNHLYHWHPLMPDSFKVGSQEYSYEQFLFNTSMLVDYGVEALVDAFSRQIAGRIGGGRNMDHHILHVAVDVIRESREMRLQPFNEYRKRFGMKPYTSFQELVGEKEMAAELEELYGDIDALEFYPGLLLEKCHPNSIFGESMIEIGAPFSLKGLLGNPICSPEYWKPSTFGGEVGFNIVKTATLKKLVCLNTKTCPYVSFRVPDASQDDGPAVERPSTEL
Sequence of neutral endopeptidase (P08473 whole entry, species assumed): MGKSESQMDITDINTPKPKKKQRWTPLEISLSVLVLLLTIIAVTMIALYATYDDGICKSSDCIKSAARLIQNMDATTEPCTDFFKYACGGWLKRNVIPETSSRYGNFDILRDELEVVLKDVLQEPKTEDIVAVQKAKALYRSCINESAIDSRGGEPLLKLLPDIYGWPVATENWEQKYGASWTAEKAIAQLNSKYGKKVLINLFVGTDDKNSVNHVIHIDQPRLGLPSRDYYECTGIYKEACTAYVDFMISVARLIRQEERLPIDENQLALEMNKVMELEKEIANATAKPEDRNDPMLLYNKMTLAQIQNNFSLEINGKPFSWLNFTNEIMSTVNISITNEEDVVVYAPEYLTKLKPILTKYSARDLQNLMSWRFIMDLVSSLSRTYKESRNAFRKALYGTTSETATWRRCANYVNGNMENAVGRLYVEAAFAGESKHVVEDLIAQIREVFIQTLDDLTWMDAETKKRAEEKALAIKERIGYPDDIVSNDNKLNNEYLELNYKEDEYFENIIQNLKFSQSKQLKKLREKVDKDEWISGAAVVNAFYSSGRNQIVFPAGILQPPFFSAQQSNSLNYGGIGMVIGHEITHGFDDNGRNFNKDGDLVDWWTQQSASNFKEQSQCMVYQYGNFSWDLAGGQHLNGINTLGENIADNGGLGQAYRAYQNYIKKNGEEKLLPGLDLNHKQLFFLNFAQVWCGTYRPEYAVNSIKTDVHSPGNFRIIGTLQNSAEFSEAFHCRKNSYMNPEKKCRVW
Sequence of tyrosine hydroxylase (P07101 whole entry): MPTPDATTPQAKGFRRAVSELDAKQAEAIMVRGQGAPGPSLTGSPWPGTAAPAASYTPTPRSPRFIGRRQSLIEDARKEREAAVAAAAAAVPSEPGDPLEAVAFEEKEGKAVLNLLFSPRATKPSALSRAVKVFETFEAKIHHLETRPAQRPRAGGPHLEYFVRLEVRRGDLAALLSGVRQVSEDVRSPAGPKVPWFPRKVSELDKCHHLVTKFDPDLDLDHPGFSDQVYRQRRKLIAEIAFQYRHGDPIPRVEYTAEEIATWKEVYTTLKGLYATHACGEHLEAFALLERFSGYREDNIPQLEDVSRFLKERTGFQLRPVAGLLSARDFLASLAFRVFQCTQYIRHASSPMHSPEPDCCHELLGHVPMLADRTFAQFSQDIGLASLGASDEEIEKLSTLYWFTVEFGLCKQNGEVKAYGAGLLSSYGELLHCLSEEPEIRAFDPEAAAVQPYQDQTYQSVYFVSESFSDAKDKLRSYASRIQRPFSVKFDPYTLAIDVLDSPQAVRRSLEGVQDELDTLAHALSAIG

## Cl.NCc1c[nH]c(=S)n1[C@H]1CCc2c(F)cc(F)cc2C1 [nepicastat, (S)-5-Aminomethyl-1-(5,7-difluoro-1,2,3,4-tetrahydronaphth-2-yl)-2,3-dihydro-2-thioxo-1H-imidazole hydrochloride]
[1]
  IC50: > 10 µM
HMG-CoA reductase
  IC50: > 10 µM
Acetyl CoA synthetase
  IC50: > 10 µM
[2]
  IC50: > 10 µM
cyclooxygenase-I
  IC50: > 10 µM
Neutral endopeptidase
  IC50: > 10 µM
Nitric oxide synthase
  IC50: > 10 µM
Phosphodiesterase III
  IC50: > 10 µM
Phospholipase A2
  IC50: > 10 µM
Protein kinase C
  IC50: > 10 µM
Tyrosine hydroxylase
  IC50: > 10 µM
Pithed SHRs; 3 mg/kg p.o., 5 hours after dosing
  hypertensive and tachycardic responses to preganglionic nerve stimulation: significantly attenuated the hypertensive and tachycardic responses
Pithed SHRs; 5 h after dosing
  heart rate response to PNS: not significantly affected
  maximum shift in the frequency-pressor response curve: ~5 fold
SHRs; 10 mg/kg p.o.
  blood pressure measured directly via arterial cannulae, restrained: significant antihypertensive effect
SHRs; 1 and 10 mg/kg p.o., 21 days
  heart rate and systolic blood pressure by tail cuff: did not alter heart rate, or systolic blood pressure
[3]; cerebral cortex, 7 days, 1 mg/kg
  norepinephrine levels and dopamine/norepinephrine ratio vs vehicle: no significant (p>0.05) differences
[3]; [4]
  dopamine/norepinephrine ratio vs vehicle: significantly (p<0.05) higher
  norepinephrine levels vs vehicle: significantly (p<0.1) lower
[3]; cerebral cortex, 7 days, 1 or 10 mg/kg
  dopamine levels vs vehicle: no significant (p>0.05) differences
[3]; cortex, 25 days, 1 mg/kg
  dopamine levels vs vehicle: significantly (p<0.05) higher
  dopamine/norepinephrine ratio vs vehicle: significantly (p<0.01) greater
[3]; cortex, 25 days, 10 mg/kg
  dopamine/norepinephrine ratio vs vehicle: significantly greater (p<0.05)
[3]; cortex, 25 days, either dose
  norepinephrine levels vs control: not significantly (p.>0.05) different
[3]; mesenteric artery, 1 mg/kg
  all parameters vs control: None of the parameters measured were significantly (p<0.05) different
[3]; [5]
  dopamine levels and dopamine/norepinephrine ratios vs vehicle: significantly higher dopamine levels and dopamine/norepinephrine ratios
  norepinephrine levels vs vehicle: no differences in norepinephrine levels
